Entries after “also recorded” stand apart in the source; their conditions may differ. Marks after values point to notes of the source that are not given here.
Legend:
[1] = target: T1, AR (Homo sapiens, UniProt P10275); experiment: [3H]R1881 binding assay on cytosol fractions of BPH fragments; parameters: from tissue; host or cells: human BPH prostatic tissue, cytosol fraction
T1 sequence (P10275 1-920): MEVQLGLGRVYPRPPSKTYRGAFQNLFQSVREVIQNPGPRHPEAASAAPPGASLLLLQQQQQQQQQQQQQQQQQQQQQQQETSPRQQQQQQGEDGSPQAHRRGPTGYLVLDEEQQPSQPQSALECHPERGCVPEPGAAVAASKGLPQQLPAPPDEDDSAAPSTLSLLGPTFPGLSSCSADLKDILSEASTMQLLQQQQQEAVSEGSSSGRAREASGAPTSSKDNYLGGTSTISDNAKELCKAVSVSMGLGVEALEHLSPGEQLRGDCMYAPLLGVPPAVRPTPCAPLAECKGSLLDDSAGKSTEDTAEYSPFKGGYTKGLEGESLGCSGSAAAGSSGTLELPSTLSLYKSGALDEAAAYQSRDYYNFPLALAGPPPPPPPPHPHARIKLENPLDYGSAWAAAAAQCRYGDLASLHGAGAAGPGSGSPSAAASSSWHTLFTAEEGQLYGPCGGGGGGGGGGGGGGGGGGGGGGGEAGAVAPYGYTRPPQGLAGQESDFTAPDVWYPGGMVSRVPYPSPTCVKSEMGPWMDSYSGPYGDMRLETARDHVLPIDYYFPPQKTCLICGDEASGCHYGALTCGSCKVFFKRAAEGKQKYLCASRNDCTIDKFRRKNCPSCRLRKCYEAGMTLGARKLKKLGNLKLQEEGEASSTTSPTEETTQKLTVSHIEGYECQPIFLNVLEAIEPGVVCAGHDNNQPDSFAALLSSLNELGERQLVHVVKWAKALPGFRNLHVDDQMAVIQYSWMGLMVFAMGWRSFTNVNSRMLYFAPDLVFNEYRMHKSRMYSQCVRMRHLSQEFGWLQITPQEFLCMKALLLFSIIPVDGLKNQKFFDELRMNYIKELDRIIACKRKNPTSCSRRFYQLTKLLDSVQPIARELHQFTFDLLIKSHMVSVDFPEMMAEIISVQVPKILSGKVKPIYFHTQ
Experimental: Prostatic tissues for binding assay were obtained from patients who underwent suprapubic adenomectomy for BPH. No pharmacological treatment was performed in the 3 months preceding surgery. After surgery, the tissues were immediately placed in liquid nitrogen and stored at −80° C. until processing.
Protein content was determined by the known method of Bradford, using BSA as a standard.

[2] = tested on: BPH cells; experiment: BPH cell proliferation assay; type: cell-based, human; conditions: 48 h; for BPH cell proliferation increased by stimulus: T 10 nM or GF 10 ng/ml; for effect on DHT-stimulated BPH cell proliferation: DHT 10 nM; for effect on DHT-stimulated BPH cell proliferation / effect on T-stimulated BPH cell proliferation: Compound A 1 nM, F 1 nM, Cyp 100 nM; for effect on T-stimulated BPH cell proliferation: T 10 nM
Experimental: (§1) Human BPH cells, prepared, maintained and used as previously described in Crescioli C, et al. Journal of Clinical and Endocrinology Metabolism (2000) 85 p 2576-2583, were obtained from prostate tissues derived from 5 patients, who underwent suprapubic adenomectomy for BPH, after informed consent and approval by the Local Ethical Committee.
For all cell proliferation assay, 4×10^4 BPH cells were seeded onto 12-well plates in their growth medium, starved in red- and serum-free medium containing 0.1% BSA for 24 h, and then treated with specific stimuli for 48 h. Cells in phenol red- and serum-free medium containing 0.1% BSA were used as controls. Thereafter, cells were trypsinized, and each experimental point was derived from hemocytometer counting, averaging at least six different fields for each well, as previously reported (see Crescioli C, et al. Journal of Clinical and Endocrinology Metabolism (2000) 85 p 2576-2583). […] Growth assays were also carried out using a fixed concentration of androgens (10 nM) with or without Compound A (1 nM, 10 nM) or the anti-androgens finasteride (F, 1 nM) and cyproterone acetate (Cyp, 100 nM). Growth assays were also performed using a fixed concentration of T (10 nM) or GFs (10 ng/ml) with or without Compound A (10 nM). In the same experiment, each experimental point was repeated in triplicate or quadruplicate and experiments were performed 3 times. Results are expressed as % variation (mean±SEM) over the maximal T or GF-induced stimulation.

[3] = tested on: BPH cells; experiment: In situ end labeling (ISEL) of apoptotic BPH cells; type: cell-based, human; conditions: for change in percentage of apoptotic nuclei vs untreated cells: 48 h, Compound A 10 nM, T 10 nM, GFs 10 ng/ml
Experimental: as §1
ISEL was performed onto BPH cells using Apop Tag in situ apoptosis detection kit peroxydase following the manufacturer's instruction. Cells were incubated with T (10 nM), KGF (10 ng/ml) or Des(1-3)IGF-I (10 ng/ml) with or without Compound A (10 nM). The percentage of apoptotic cells (the number of stained cells divided by the total number of cells) was calculated in at least five separate fields per slide in five different slides. Results are expressed as mean±SEM from three separate experiments.

[4] = target: T2, 5α reductase type 1 (Homo sapiens, UniProt P18405); experiment: 5α reductase inhibition test in CHO 1827 cells; type: cell-based; conditions: CHO cells transfected with type 1, n=3
T2 construct: host or cells: CHO 1827
T2 sequence (P18405 1-259): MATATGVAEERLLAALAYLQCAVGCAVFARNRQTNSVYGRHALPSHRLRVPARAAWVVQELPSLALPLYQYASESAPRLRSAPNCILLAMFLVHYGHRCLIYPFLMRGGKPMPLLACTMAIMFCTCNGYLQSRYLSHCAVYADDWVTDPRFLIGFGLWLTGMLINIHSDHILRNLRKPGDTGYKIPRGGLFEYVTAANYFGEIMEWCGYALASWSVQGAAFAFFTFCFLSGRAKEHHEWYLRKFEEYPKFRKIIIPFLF
Experimental: (§2) CHO-1827 and CHO-1829 cells, transfected with 5α reductase type 1 (5αR-1) or type 2 (5αR-2), respectively (see Steers W. Urology (2001) 58 p 17-24), were maintained in Ham's F12 medium supplemented with 5% FCS.
(§3) 5α reductase inhibition assay was performed using CHO 1827 cells, transfected with 5αR-1, or CHO 1829 cells, transfected with 5αR-2, as described (see Guarna A, et al. Journal of Medicinal Chemistry (2000) 43 3718-3735.). Compound A was added in a concentration range from 10^−9 to 10^−5 M, using finasteride as a control inhibitor in each experiment.

[5] = target: T3, 5α reductase type 2 (Homo sapiens, UniProt P31213); experiment: 5α reductase inhibition test in CHO 1829 cells; type: cell-based; conditions: CHO cells transfected with type 2, n=3
T3 construct: host or cells: CHO 1829
T3 sequence (P31213 1-254): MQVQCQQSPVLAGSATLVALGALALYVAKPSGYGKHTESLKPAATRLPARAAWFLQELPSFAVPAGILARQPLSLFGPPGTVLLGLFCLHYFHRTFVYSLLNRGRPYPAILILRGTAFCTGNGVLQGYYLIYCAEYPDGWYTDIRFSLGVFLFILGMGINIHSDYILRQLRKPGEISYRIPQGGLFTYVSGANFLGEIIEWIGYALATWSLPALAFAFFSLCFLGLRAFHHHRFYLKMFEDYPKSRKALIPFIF
Experimental: as §2, §3

[6] = tested on: rat ventral prostate; experiment: Clusterin expression (Northern, immunohistochemistry) and TUNEL in rat ventral prostate; type: in vivo; conditions: orchidectomized T-supplemented rats; Compound A 300 and 100 μg/Kg, F 40 mg/Kg
Experimental: Total RNA was extracted using RNAFast from Molecular System (San Diego, Calif.). Blotting, labelling, hybridization conditions and probes (rat clusterin 1.5 Kb full-length cDNA and GAPDH 1.2 Kb full-length cDNA) were performed according to the reported procedures (Bettuzzi et al, Biochemical Journal, (1989), 257, p 293-296 and Marinelli et al, Biochemistry and Cell Biology, (1994), 72, p 515-521). Quantitation of the autoradiograms was obtained by densitometric scanning using an LKB Ultrascan XL densitometer.
All the cryostatic sections obtained from controls and treated rats were processed in parallel as previously described (Astancolle et al, Journal of Endocrinology, (2000), 167, p 197-204). For every experimental condition, 3 alternate sections from 3 different rat prostates were examined. […] Counterstaining was performed with haematoxylin, and cover slips were mounted with Eukitt (O. Kindler GmbH & Co, Germany). Digital high-magnification colour images were acquired by a CCD camera through the microscope.
DNA fragmentation in prostate cryostatic sections, assessed by terminal deoxynucleotidyl transferase (TdT)-mediated dUTP nick end-labelling (TUNEL), was performed using the In Situ Cell Death Detection Kit (POD, Roche) as recommended by the manufacturer. TUNEL positive apoptotic nuclei were documented by digital high-magnification colour images acquired by a CCD camera through the microscope. Counterstaining was performed with eosin, and cover slips were mounted with Eukitt (O Kindler GmbH & Co, Germany).

## C[C@]1(O)CC[C@H]2[C@@H]3CCC4=CC(=O)CCC4=C3C=C[C@@]21C [Compound R1881, reference compound]
[1]
  competition for [3H]-R1881 binding: completely displaced

## C[C@]12CC[C@H]3[C@@H](CCC4=CC(=O)CC[C@@]43C)[C@@H]1CC[C@@H]2O [T, testosterone, reference compound]
[2]
  BPH cell proliferation increased by stimulus: 156±8%
[3]
  change in percentage of apoptotic nuclei vs untreated cells: −27%

## C=C1/C(=C\C=C2/CCC[C@]3(C)[C@@H]([C@H](C)CCCC(C)(C)O)CC[C@@H]23)C[C@@H](O)C[C@@H]1O [calcitriol, 1,25-dihydroxyvitamin D3, reference compound]
[2]; Homo sapiens, read-out: −log IC50, inhibition of BPH cell growth (converted)
  IC50: 0.0631 nM
[2]; unstimulated BPH cells, Imax shared by both secosteroids
  maximal inhibition (Imax) of BPH cell growth: 43±1%

## CC(=O)O[C@]1(C(C)=O)CC[C@H]2[C@@H]3C=C(Cl)C4=CC(=O)[C@@H]5C[C@@H]5[C@]4(C)[C@H]3CC[C@@]21C [cyproterone acetate, reference compound]
[2]
  effect on DHT-stimulated BPH cell proliferation: significantly blocked
  effect on T-stimulated BPH cell proliferation: significantly blocked

## CC(C)(C)NC(=O)[C@H]1CC[C@H]2[C@@H]3CC[C@H]4NC(=O)C=C[C@]4(C)[C@H]3CC[C@]12C [finasteride, 17β-(N,t-butyl)carbamoyl-4-aza-5α-androst-1-en-3-one, reference compound]
[2]
  effect on DHT-stimulated BPH cell proliferation: effective only against T
  effect on T-stimulated BPH cell proliferation: antagonized only T-induced cell growth; also recorded: effective only against T
[4]
  IC50: 659 ± 100 nM
[5]
  IC50: 53.7 ± 11 nM
[6]
  clusterin mRNA expression in ventral prostate (Northern): partially blunted the T-induced down-regulation of clusterin gene expression

B1: KGF: Keratinocyte growth factor from Pepro Tech EC (protein, UniProt P21781 32-194, looked up)
Fibroblast growth factor 7: CNDMTPEQMATNVNCSSPERHTRSYDYMEGGDIRVRRLFCRTQWYLRIDKRGKVKGTQEMKNNYNIMEIRTVAVGIVAIKGVESEFYLAMNKEGKLYAKKECNEDCNFKELILENHYNTYASAKWTHNGGEMFVALNQKGIPVRGKKTKKEQKTAHFLPMAIT
[2]
  BPH cell proliferation increased by stimulus: 183±5%
[3]
  change in percentage of apoptotic nuclei vs untreated cells: −54%
[3]; GF 10 ng/ml or T 10 nM alone, ISEL
  Apoptotic index (%): 8.5 ± 0.42^a %

Source: patent publication US7332482B2, “Method for treating benign prostatic hyperplasia” (BioXell S.p.A., priority 2003, dated 2008)
